Results: ChEMBL document CHEMBL1201862, “PubChem BioAssay data set” (2004)
Active and inactive are the calls of the source.

Key:
[1] = P. falciparum Dd2 growth inhibitors, dose response, SYBR Green, dry powder samples, set 9 (AID 1159568); type: functional, cell-based
[2] = HepG2 cell cytotoxicity, dose response, cytotoxicity control, plate reader, cherry-pick, antagonist series (AID 743416); type: functional, cell-based
[3] = LGR2 antagonists, dose response, cell-based, HEK293, CRE-luciferase reporter, cherry pick, set 2 (AID 743343); type: functional;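 further: transfected cells were stimulated with diluted bursicon conditioned medium after compound addition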
[4] = A549 cell cytotoxicity, dose response, cytotoxicity control, plate reader, cherry-pick, antagonist series (AID 743412); type: functional, cell-based
[5] = MC4R antagonists, dose response, counter-screen for LGR2 antagonist project, cell-based, plate reader, cherry pick (AID 743444); type: functional;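 further: transfected HEK 293 cells stimulated with alpha-MSH peptide; potency of inhibitors of the alpha-MSH evoked signal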
[6] = HEK293 cell cytotoxicity, dose response, cytotoxicity control, plate reader, cherry-picked samples (AID 743446); type: functional, cell-based
[7] = target: T1, Oxysterols receptor LXR-beta (Homo sapiens, UniProt P55055); type: functional, cell-based;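 further: Cell-based luminescence dose-response assay of agonist activity at LXR, run as a confirmatory counterscreen to a daf-12 agonist screen; HEK293 cells with Gal4-LXR fusion and GAL4-driven luciferase reporter; agonist potency from rising luciferase signal of a Gal4-LXR reporter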
T1 sequence (P55055 whole entry): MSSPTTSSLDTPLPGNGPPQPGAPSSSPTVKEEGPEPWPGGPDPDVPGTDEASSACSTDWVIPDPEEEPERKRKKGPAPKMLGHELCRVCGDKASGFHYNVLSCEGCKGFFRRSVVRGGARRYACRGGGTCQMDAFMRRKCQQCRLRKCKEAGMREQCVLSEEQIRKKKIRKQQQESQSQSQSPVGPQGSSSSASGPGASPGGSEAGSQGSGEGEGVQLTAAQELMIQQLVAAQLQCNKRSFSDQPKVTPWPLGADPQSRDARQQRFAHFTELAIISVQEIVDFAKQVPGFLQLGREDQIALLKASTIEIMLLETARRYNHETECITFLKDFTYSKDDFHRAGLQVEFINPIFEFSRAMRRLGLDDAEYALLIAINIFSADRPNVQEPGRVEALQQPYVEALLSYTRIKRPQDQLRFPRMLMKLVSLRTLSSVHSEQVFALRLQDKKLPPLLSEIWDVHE

[8] = target: Disintegrin and metalloproteinase domain-containing protein 17 (Homo sapiens, UniProt P78536); assay: ADAM17 protease inhibitors, dose response, counter-screen for ADAM10 exosite inhibitor project, biochemical, quenched FRET substrate (AID 743253)
[9] = system: Streptococcus sp. 'group A'; assay: growth inhibition of control SK(-) GAS strain, dose response, counter-screen for streptokinase expression inhibitor project, luminescence, kanamycin, BacTiterGlo, confirmation (AID 1900); type: functional, organism-based
Streptokinase A = target: T2, Streptokinase A (Streptococcus pyogenes serotype M1, UniProt P10520); assay: S. pyogenes streptokinase expression inhibitors, potency, dose response, plasminogen activation absorbance, OD405 (AID 1914); type: functional, Streptococcus pyogenes M1 GAS;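 further: secreted streptokinase activity via plasminogen activation per viability signal from cell pellet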
T2 sequence (P10520 whole entry): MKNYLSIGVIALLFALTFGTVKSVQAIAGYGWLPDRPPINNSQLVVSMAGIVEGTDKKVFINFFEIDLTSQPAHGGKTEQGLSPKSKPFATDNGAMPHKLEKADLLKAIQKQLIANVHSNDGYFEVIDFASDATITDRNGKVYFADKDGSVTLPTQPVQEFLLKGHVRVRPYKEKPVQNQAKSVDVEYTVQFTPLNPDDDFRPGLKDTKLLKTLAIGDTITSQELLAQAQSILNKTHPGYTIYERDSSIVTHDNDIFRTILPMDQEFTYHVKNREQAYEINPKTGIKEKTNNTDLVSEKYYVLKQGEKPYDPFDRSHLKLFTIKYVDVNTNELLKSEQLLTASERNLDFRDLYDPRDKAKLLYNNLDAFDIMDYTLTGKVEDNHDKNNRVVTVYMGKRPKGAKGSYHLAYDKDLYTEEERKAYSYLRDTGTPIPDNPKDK

Streptococcus = assay: Group A Streptococcus viability loss, dose response, counter-screen for streptokinase expression inhibitor project, luminescence, BacTiterGlo (AID 1915); type: functional, organism-based;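 further: potency for reduction of bacterial viability or growth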
Paired box protein Pax-8 = Paired box protein Pax-8 (Homo sapiens, UniProt Q06710); assay: inhibitors of PAX8-driven TPO luciferase reporter, dose response, RMG-I cells, cherry-pick (AID 687027); type: functional, cell-based;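 further: luciferase reporter driven by Pax8 target thyroperoxidase promoter measured by SteadyGlo luminescence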
[10] = NIH:OVCAR-3 ovarian cancer cell cytotoxicity, dose response, PAX8 inhibitor project, plate reader, dry powder samples (AID 743044); type: functional, cell-based
[11] = cytotoxicity in OVCAR8 ovarian cancer cells, dose response, PAX8 project, cell-based, plate reader, dry powder samples (AID 743197); type: functional; conditions: OVCAR-8
[12] = P. falciparum Dd2 growth inhibitors, dose response, SYBR Green, cherry-picked samples (AID 1159567); type: functional, cell-based
[13] = P. falciparum 3D7-ScDHODH growth inhibitors, dose response, SYBR Green, dry powder samples (AID 1159570); type: functional, cell-based;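 further: parasite growth measured after 72 hours of compound exposure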
[14] = P. falciparum ATP4 D1247Y mutant growth inhibitors, dose response, NITD609-resistant line, SYBR Green, dry powder (AID 1159571); type: functional, cell-based;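 further: parasites synchronized at ring stage by sorbitol before testing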
[15] = P. falciparum Dd2 growth inhibitors, dose response, SYBR Green, dry powder samples (AID 1159566); type: functional, cell-based;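 further: potency for growth inhibition with lower SYBR green DNA signal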
[16] = RKO cell viability reduction, dose response, CellTiter-Glo luminescence (AID 1117322); type: functional
[17] = SNU-C1 cell viability reduction, dose response, CellTiter-Glo luminescence (AID 1117323); type: functional, cell-based
[18] = cytotoxicity toward HCT116 cells – cell-based, CellTiter-Glo luminescence, IC50, dose response (AID 1117332); type: functional; conditions: HCT-116
[19] = CellTiter-Glo luminescent dose response of DLD-1 viability loss (AID 1117352); type: functional
[20] = HeLa 2N DNA content increase, dose response, cell-based, IC50 (AID 1117349); type: functional
[21] = HCT116 cell viability decrease, GSK3B pretreatment – CellTiter-Glo, IC50, dose response (AID 1117339); type: functional; conditions: HCT-116
[22] = cytotoxicity toward HT-29 cells – cell-based, CellTiter-Glo luminescence, IC50, dose response (AID 1117330); type: functional
[23] = cytotoxicity toward Colo320 cells – cell-based, CellTiter-Glo luminescence, IC50, dose response (AID 1117334); type: functional; conditions: COLO 320
[24] = HeLa 4N DNA content increase, dose response, cell-based, IC50 (AID 1117351); type: functional
[25] = target: T3, Sentrin-specific protease 6 (Homo sapiens, UniProt Q9GZR1); type: functional;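 further: Luminescence-based dose-response confirmatory assay of SENP6 inhibition, following up an ultra-high-throughput screen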
T3 sequence (Q9GZR1 whole entry): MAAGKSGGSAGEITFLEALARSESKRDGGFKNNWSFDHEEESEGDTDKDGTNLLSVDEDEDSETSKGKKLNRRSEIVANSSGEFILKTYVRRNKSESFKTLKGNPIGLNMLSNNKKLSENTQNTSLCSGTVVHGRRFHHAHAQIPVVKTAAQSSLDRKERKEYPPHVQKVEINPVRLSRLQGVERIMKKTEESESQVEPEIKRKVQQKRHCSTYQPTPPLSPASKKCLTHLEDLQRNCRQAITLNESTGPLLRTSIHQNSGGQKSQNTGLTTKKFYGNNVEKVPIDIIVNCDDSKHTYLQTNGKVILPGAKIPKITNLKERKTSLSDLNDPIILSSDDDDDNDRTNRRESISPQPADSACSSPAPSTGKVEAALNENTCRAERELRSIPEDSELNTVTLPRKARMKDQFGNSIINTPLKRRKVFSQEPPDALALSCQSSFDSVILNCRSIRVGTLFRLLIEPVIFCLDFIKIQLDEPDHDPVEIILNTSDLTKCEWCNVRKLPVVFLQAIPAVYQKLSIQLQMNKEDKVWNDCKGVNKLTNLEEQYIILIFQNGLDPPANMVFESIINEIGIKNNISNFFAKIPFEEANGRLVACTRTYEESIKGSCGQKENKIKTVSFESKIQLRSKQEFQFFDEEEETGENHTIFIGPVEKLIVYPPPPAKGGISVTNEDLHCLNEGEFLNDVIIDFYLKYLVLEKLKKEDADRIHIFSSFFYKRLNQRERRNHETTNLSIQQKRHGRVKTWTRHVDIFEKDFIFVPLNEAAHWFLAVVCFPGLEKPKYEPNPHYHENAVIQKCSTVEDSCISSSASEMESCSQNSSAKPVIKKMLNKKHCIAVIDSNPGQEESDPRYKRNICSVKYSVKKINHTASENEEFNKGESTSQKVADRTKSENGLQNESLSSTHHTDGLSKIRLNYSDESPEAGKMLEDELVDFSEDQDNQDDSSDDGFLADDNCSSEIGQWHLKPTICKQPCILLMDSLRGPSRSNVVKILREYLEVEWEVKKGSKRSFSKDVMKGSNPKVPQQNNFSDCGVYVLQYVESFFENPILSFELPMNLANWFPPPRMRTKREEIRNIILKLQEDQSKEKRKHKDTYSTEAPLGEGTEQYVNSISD

[26] = target: T4, Sentrin-specific protease 8 (Homo sapiens, UniProt Q96LD8); type: functional;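 further: luminescence read-out of SENP8 inhibition, dose-response confirmation following an ultra-high-throughput screen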
T4 sequence (Q96LD8 whole entry): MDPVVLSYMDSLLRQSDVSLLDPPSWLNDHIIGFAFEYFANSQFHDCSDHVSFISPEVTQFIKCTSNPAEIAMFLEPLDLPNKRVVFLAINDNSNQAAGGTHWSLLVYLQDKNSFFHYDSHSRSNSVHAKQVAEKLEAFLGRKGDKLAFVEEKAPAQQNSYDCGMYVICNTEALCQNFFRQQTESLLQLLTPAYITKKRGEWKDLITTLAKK

[27] = target: T5, Sentrin-specific protease 7 (Homo sapiens, UniProt Q9BQF6); type: functional;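 further: Luminescence-based dose-response confirmation of ultra-high-throughput screening hits, measuring inhibition of SENP7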
T5 sequence (Q9BQF6 whole entry): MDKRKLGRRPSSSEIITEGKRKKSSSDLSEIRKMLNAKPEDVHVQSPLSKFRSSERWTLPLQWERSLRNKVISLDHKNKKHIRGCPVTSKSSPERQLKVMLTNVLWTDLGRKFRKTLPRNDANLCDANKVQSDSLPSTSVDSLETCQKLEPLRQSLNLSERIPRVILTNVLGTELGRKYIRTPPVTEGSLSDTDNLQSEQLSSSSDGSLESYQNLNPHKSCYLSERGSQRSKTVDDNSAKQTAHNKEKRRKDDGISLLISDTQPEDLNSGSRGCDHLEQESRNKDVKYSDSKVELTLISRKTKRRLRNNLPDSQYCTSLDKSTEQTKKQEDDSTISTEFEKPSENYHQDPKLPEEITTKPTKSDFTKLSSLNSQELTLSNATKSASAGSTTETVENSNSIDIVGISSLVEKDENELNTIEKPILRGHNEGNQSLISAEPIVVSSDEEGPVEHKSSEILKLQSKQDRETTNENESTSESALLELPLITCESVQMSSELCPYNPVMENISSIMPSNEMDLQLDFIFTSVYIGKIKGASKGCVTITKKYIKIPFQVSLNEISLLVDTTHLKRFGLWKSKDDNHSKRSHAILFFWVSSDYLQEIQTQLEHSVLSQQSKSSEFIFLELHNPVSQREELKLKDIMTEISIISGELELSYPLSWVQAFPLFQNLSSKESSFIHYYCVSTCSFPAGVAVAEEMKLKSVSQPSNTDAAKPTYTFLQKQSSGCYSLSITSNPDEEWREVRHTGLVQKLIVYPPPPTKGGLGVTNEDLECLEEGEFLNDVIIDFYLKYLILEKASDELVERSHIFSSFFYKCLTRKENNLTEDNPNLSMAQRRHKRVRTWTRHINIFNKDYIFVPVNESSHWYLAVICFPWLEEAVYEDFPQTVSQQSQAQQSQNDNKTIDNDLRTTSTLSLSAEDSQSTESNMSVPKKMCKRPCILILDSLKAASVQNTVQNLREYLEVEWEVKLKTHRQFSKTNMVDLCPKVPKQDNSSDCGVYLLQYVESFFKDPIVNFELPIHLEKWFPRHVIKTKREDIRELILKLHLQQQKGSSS

Caspase-3 = target: T6, Caspase-3 (Homo sapiens, UniProt P42574); type: functional;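 further: Dose-response selectivity test against caspase-3 for candidate inhibitors of sentrin-specific proteases (SENPs)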
T6 sequence (P42574 whole entry): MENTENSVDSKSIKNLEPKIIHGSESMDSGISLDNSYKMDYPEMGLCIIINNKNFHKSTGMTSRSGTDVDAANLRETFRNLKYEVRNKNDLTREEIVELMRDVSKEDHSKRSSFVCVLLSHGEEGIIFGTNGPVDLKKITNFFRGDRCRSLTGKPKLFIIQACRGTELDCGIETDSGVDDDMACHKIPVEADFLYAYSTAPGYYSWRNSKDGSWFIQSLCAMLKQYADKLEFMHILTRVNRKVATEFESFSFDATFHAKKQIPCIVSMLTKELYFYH

Chain of Disintegrin and metalloproteinase domain-containing protein 17 (P78536 whole entry, the tested form may be a part): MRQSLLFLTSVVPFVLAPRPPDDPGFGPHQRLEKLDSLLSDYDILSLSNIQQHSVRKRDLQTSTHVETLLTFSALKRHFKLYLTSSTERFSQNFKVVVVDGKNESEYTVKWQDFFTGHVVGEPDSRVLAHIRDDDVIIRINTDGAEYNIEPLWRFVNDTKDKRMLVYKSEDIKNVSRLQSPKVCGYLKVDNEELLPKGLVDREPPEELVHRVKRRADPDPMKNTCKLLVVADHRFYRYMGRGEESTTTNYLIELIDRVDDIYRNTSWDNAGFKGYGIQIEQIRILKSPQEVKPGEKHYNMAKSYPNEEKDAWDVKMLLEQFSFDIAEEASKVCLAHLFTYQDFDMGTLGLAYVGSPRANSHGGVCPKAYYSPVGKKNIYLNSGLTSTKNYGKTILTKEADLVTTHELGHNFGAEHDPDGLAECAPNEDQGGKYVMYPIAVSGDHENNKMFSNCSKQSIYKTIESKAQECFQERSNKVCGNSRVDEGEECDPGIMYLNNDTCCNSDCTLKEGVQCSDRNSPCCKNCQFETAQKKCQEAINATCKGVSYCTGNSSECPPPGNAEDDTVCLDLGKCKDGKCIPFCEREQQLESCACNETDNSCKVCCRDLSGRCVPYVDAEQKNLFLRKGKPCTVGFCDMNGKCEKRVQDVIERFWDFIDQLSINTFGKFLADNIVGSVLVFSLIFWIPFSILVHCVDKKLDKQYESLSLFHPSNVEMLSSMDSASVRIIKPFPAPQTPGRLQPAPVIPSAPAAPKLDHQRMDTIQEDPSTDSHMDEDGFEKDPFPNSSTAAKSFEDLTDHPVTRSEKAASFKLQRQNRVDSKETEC
Chain of Paired box protein Pax-8 (Q06710 whole entry): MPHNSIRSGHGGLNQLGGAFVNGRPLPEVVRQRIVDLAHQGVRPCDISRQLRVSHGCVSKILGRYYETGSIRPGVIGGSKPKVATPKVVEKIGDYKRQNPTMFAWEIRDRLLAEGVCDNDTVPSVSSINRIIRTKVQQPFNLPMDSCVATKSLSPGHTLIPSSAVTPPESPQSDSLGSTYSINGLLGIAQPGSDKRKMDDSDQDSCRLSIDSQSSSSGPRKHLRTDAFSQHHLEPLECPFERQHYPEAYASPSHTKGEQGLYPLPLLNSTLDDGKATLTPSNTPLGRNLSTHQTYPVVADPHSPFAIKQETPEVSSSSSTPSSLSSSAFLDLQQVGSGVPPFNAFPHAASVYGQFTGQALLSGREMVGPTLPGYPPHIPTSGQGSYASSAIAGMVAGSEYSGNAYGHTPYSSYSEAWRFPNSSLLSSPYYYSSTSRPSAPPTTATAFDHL

Compound: O=C(C[C@@H]1C[C@H]2c3cc(NC(=O)c4ccc5c(c4)OCO5)ccc3O[C@H]2[C@H](CO)O1)NCc1ccc(Oc2ccccc2)cc1
- AC50 [1]: 25.6 µM (active)

Compound: NC(=O)c1ccsc1NC(=O)c1ccc2c(c1)CCCC2
- AC50 [2]: 42.4 µM (active)
- AC50 [3]: 9.99 µM (active)
- AC50 [4]: 14.1 µM (active)
- EC50 (cells): > 67.5 µM (inactive)
- AC50 [5]: 15.2 µM (active)
- AC50 [6]: 31.4 µM (active)
- EC50 [7]: > 67.5 µM (inactive)

Compound: CCc1ccc(NC(=O)c2ccc(F)c(S(=O)(=O)NCC3COc4ccccc4O3)c2)cc1 (configuration not stated)
- IC50 [8]: > 69.5 µM (inactive)
- EC50 [9]: 10.7 µM (active)
- EC50 (Streptokinase A): 35.2 µM (active)
- EC50 (Streptococcus): 18.4 µM (active)

Compound: C[C@@H]1CN([C@H](C)CO)C(=O)c2cc(NC(=O)Nc3ccc(F)cc3)ccc2O[C@@H](C)CCCCO[C@H]1CN(C)C(=O)Nc1ccc(C(F)(F)F)cc1
- AC50 (Paired box protein Pax-8): 5.23 µM (active)
- AC50 [10]: 35 µM (active)
- AC50 [11]: 39.3 µM (active)

Compound: COc1ccc(C#Cc2ccc3c(c2)O[C@@H](CN(C)C(=O)Nc2cccc(OC)c2)[C@@H](C)CN([C@H](C)CO)S3(=O)=O)cc1
- AC50 [1]: 0.466 µM (active)
- AC50 [12]: 1.07 µM (active)
- AC50 [13]: 0.473 µM (active)
- AC50 [14]: 0.494 µM (active)
- AC50 [15]: 0.49 µM (active)

Compound: Nc1nc(Cl)nc2c1ncn2[C@@H]1O[C@H](CO)[C@@H](O)[C@@H]1F [CLOFARABINE]
- IC50 [16]: 0.001 µM (active)
- IC50 [17]: > 20 µM (inactive)
- IC50 [18]: 0.001 µM (active)
- IC50 [19]: 0.164 µM (active)
- IC50 [20]: > 10 µM (inactive)
- IC50 [21]: 0.001 µM (active)
- IC50 [22]: > 20 µM (inactive)
- IC50 [23]: > 20 µM (inactive)
- IC50 [24]: > 10 µM (inactive)

Compound: NC(=O)c1c(NC(=O)c2ccccc2)sc2c1CCC2
- EC50 (cells): > 67.5 µM (inactive)
- IC50 [25]: > 100 µM (inactive)
- IC50 [26]: > 100 µM (inactive)
- EC50 [7]: > 67.5 µM (inactive)
- IC50 [27]: 7.52 µM (active)
- IC50 (Caspase-3): 27.7 µM (active)

Compound: O=C1C(/C=N/Cc2ccco2)=C(O)c2ccccc21
- EC50 (cells): > 67.5 µM (inactive)
- EC50 [7]: > 67.5 µM (inactive)
